According to PubChem BioAssay (NCI):
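Where inhibition never reached the appropriate level, the endpoint shown equals the highest concentration tested. Otherwise, values were interpolated linearly from a five-concentration, 48-hour dose response in 96-well plates. GI50 is the concentration that inhibits growth by half. TGI: total growth inhibition.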

How the values were obtained:
Assay in all cases: NCI-60 cell line screen, 48 h
HCC-2998 colon = tested on: HCC-2998 colon
HOP-62 NSCLC = tested on: HOP-62 NSCLC
IGROV1 ovarian = tested on: IGROV1 ovarian
NCI-H226 lung = tested on: NCI-H226 lung
NCI-H460 lung = tested on: NCI-H460 lung
OVCAR-8 ovarian = tested on: OVCAR-8 ovarian
SF-268 CNS = tested on: SF-268 CNS
SF-295 CNS = tested on: SF-295 CNS
U251 CNS = tested on: U251 CNS
UACC-257 melanoma = tested on: UACC-257 melanoma

Compound | GI50 (HCC-2998 colon) | TGI (HCC-2998 colon) | GI50 (HOP-62 NSCLC) | TGI (HOP-62 NSCLC) | GI50 (IGROV1 ovarian) | TGI (IGROV1 ovarian) | GI50 (NCI-H226 lung) | TGI (NCI-H226 lung) | GI50 (NCI-H460 lung) | TGI (NCI-H460 lung) | GI50 (OVCAR-8 ovarian) | TGI (OVCAR-8 ovarian) | GI50 (SF-268 CNS) | TGI (SF-268 CNS) | GI50 (SF-295 CNS) | TGI (SF-295 CNS) | GI50 (U251 CNS) | TGI (U251 CNS) | GI50 (UACC-257 melanoma) | TGI (UACC-257 melanoma)
NS(=O)(=O)c1cccc(-c2ccc3c(NC(=O)C4CC4)n[nH]c3c2)c1 | > 22.1 µM | > 25 µM | > 14.2 µM | 24.7 µM | > 25 µM | > 25 µM | > 15.1 µM | > 25 µM | > 16.4 µM | > 25 µM | 24.3 µM | > 25 µM | > 21.6 µM | > 25 µM | > 25 µM | > 25 µM | 12.8 µM | > 25 µM | > 18.1 µM | > 25 µM
Cc1cccc2c(Nc3ccc(NS(C)(=O)=O)cc3)c3ccc([N+](=O)[O-])cc3nc12 | 1.49 µM | 3.11 µM | 0.373 µM | 4.87 µM | 0.954 µM | 3.65 µM | 0.755 µM | 4.08 µM | 0.0234 µM | 1.76 µM | 1.3 µM | 6.42 µM | 0.355 µM | 4.38 µM | 0.29 µM | 7.21 µM | 0.419 µM | 6.36 µM | 1.53 µM | 4.6 µM
N/C(=N\c1nc2ccccc2s1)NC(=NC1CCCCC1)NC1CCCCC1 | 1.58 µM | 2.98 µM | 1.78 µM | 3.99 µM | 1.46 µM | 2.95 µM | 1.67 µM | 3.23 µM | 1.77 µM | 3.43 µM | 1.97 µM | 4.98 µM | 1.81 µM | 3.65 µM | 1.64 µM | 3.03 µM | 1.68 µM | 3.48 µM | 1.76 µM | 3.65 µM
NC(=O)c1cccc(-c2cc(C(N)=O)ccc2Cl)c1 | 7.43 µM | > 100 µM | 3.51 µM | > 100 µM | 4.21 µM | > 100 µM | 13.4 µM | > 100 µM | 12.2 µM | 54 µM | 4.32 µM | > 100 µM | 5.68 µM | > 100 µM | 2.41 µM | 21.2 µM | 2.88 µM | > 100 µM | 25.9 µM | > 100 µM
O=C1CSC(c2ccccc2O)N1c1nnc(Cn2ccnc2)o1 (stereo not given) | 22.8 µM | 89.5 µM | 17.6 µM | > 100 µM | 16 µM | 37 µM | 37.2 µM | > 100 µM | 4.76 µM | > 100 µM | 17.8 µM | > 100 µM | 10.8 µM | 48 µM | 3.11 µM | > 100 µM | 11.7 µM | 63.6 µM | 16 µM | 40.6 µM
COc1ccc(-c2onc(-c3c(C)cc(C)cc3C)c2C2=NCCN2)cc1 |  | > 100 µM |  | > 100 µM |  | > 100 µM |  | 89.8 µM |  | > 100 µM |  | > 100 µM |  | > 100 µM |  | 35.3 µM |  | 46.7 µM |  | 46.1 µM
COc1cccc(CC(C)=C(c2ccc(OCCCN(C)C)cc2)c2ccc(OCCCN(C)C)cc2)c1 | 0.446 µM | 0.906 µM | 0.501 µM | 1.1 µM | 0.549 µM | 1.19 µM | 2.84 µM | 6.95 µM | 0.484 µM | 0.94 µM | 0.645 µM | 1.8 µM | 0.683 µM | 2.05 µM | 0.658 µM | 1.87 µM | 0.479 µM | 0.987 µM | 0.498 µM | 1.09 µM
O=C1CCC(N2C(=O)c3cccc(NCCCC4CCN(CCNC(=O)c5cc6c(o5)C(=O)c5ccccc5C6=O)CC4)c3C2=O)C(=O)N1 (stereo not given) | 0.695 µM | 1.81 µM | 1.44 µM | 2.86 µM | 0.576 µM | 2.3 µM | 1.42 µM | 3.76 µM | 0.249 µM | 0.609 µM | 1.41 µM | 7.18 µM | 2.06 µM | 7.65 µM | 0.252 µM | 0.711 µM | 1.14 µM | 2.45 µM | 0.632 µM | 1.87 µM
COc1ccc(Oc2ccccc2NC(=O)CNC(=O)c2cccc3ccccc23)cc1 | 1.41 µM | > 25 µM | 0.717 µM | > 25 µM | 1.57 µM | > 25 µM | 4.3 µM | > 25 µM | 0.859 µM | > 25 µM | 1.15 µM | > 25 µM | 2.03 µM | > 25 µM | 0.402 µM | > 25 µM | 1.06 µM | > 25 µM | > 25 µM | > 25 µM
